The PolyMetriX glass transition set
± gives the standard deviation of the reports.

Row | Structure (SMILES) | glass transition temperature
1 | *CCCCCOC(=O)c1ccccc1C(=O)[O][Pb][O]C(=O)c1ccccc1C(=O)OCCCCCOC(=O)NCCCCCCNC(=O)O* (repeat unit) | -19.20 °C
2 | *c1ccc(Oc2ccc(P(=O)(c3ccccc3)c3ccc(Oc4ccc(-c5cc(*)[nH]n5)cc4)cc3)cc2)cc1 (repeat unit) | 296.00 °C
3 | *CC(*)(C)C(=O)NC(=O)Oc1c(Br)cc(S(=O)(=O)c2cc(Br)c(O)c(Br)c2)cc1Br (repeat unit) | 116.00 °C
4 | *Oc1ccc(Cc2ccc(OC(=O)OCC3CCC(COC(*)=O)CC3)cc2)cc1 (repeat unit) | 56.90 °C
5 | *CC(F)(F)C1(F)CC(CC(O)(C(F)(F)F)C(F)(F)F)CC1* (repeat unit) | 98.00 °C
6 | */C=C(\C#N)c1cccc(/C(C#N)=C/c2ccc(/C=C/c3ccc(N(CC)Cc4ccccc4CN(CC)c4ccc(/C=C/c5ccc(*)s5)cc4)cc3)s2)c1 (repeat unit) | 178.00 °C
7 | *CCN(CCOC(=O)Nc1ccc(Cc2ccc(NC(=O)O*)cc2)cc1)c1ccc(/N=N/c2ccc([N+](=O)[O-])cc2)cc1 (repeat unit) | 136.40 °C
8 | *CCCCCCCCCCCC(=O)Oc1ccc2cc(OC(=O)CCCCCCCCCCCn3c(=O)c4cc5c(=O)n(*)c(=O)c5cc4c3=O)ccc2c1 (repeat unit) | 62.00 °C
9 | *Cc1cccc(CNC(=O)c2cc(C(=O)N*)cc(C(C)(C)C)c2)c1 (repeat unit) | 192.00 °C
10 | */C=C/C(C*)OC (repeat unit) | -10.50 °C
11 | *Oc1cccc(OC(=O)c2ccc(OC(=O)c3cccc(C(=O)Oc4ccc(C(*)=O)cc4)c3)cc2)c1 (repeat unit) | 158.00 °C
12 | *Nc1ccc(-c2c(-c3ccc(-c4ccccc4)cc3)cc(-c3ccc(-c4cc(-c5ccc(-c6ccccc6)cc5)c(-c5ccc(NC(=O)c6ccc(C(*)=O)cc6)cc5)c(-c5ccc(-c6ccccc6)cc5)c4)cc3)cc2-c2ccc(-c3ccccc3)cc2)cc1 (repeat unit) | 305.00 °C
13 | */C=C(/*)C(CCCCCCC)[Si](C)(C)C (repeat unit) | 150.00 °C
14 | *CCOC(=O)CCCCCC(=O)O* (repeat unit) | -46.00 °C
15 | *CCC(C)C(*)C (repeat unit) | -26.00 °C
16 | *O[Si](*)(C)CCc1cc(C(=O)Oc2ccc(OCCCC)cc2)ccc1-c1ccc(C(=O)Oc2ccc(OCCCC)cc2)cc1 (repeat unit) | 96.00 °C
17 | *O[Si](C)(C)CCCCCCOC(=O)C(C)Oc1ccc(OC(=O)c2ccc(-c3ccc(OCCCCCCCCCC[Si](*)(C)C)cc3)cc2)cc1 (repeat unit) | 35.00 °C
18 | *Oc1ccc(/C(=N/c2ccc(/N=C(\c3ccccc3)c3ccc(Oc4ccc(C(c5ccccc5)(c5ccccc5)c5ccc(*)cc5)cc4)cc3)cc2)c2ccccc2)cc1 (repeat unit) | 198.00 °C
19 | *CC(O)COc1c(C)cc(C(C)(C)c2cc(C)c(OCC(O)COc3c(C)cc(S(=O)(=O)c4cc(C)c(O*)c(C)c4)cc3C)c(C)c2)cc1C (repeat unit) | 145.00 °C
20 | *OC(COCCOC)COC(*)=O (repeat unit) | -50.00 °C
21 | */C=C/c1ccc(/C=C/[Si](C)(CCC(F)(F)F)c2cccc([Si](*)(C)CCC(F)(F)F)c2)cc1 (repeat unit) | 23.40 °C
22 | *CCCCCCOc1ccc(OC(=O)c2ccc(C(=O)Oc3ccc(O*)cc3)cc2)cc1 (repeat unit) | 53.00 °C
23 | *c1cccc(C(F)(F)C(F)(F)C(*)(F)F)c1 (repeat unit) | 29.00 °C
24 | *Oc1ccc(CC(NC(=O)Cc2ccc(OC(=O)COCCOCC(*)=O)cc2)C(=O)OCCCCCCCC)cc1 (repeat unit) | 23.00 °C
25 | *CC(*)C(=O)OCCN(CC)c1ccc(/N=N/c2ccc([N+](=O)[O-])cc2Cl)cc1 (repeat unit) | 87.00 °C
26 | *O[Si](*)(C)CCCC(=O)OCCO (repeat unit) | -58.00 °C
27 | *Nc1ccc(Nc2ccc(C(O)(c3ccccc3)c3ccc(C(O)(c4ccccc4)c4ccc(*)cc4)cc3)cc2)cc1 (repeat unit) | 200.00 °C
28 | *Oc1ccc(CC(NC(=O)Cc2ccc(OC(=O)COCCOCC(*)=O)cc2)C(=O)OCCCCCC)cc1 (repeat unit) | 31.00 °C
29 | *CCCCCCCCNC(=O)c1ccc(C(=O)N*)cc1 (repeat unit) | 123.00 °C

The next lines start with the values.

Row | glass transition temperature | Structure (SMILES)
30 | 113.00 °C | *CCCCCC(=O)Oc1ccc2ccc(OC(=O)c3ccc4c(c3)C(=O)N(*)C4=O)cc2c1 (repeat unit)
31 | 205.00 °C | *C(=O)Nc1ccc(Oc2ccc(NC(=O)c3ccc4c(c3)C(=O)N(c3ccc(NC(=O)Nc5ccc(N6C(=O)c7ccc(*)cc7C6=O)cc5)cc3)C4=O)cc2)cc1 (repeat unit)
32 | 247.00 °C | *c1ccc(C(C)(C)c2ccc(N3C(=O)c4ccc(Oc5ccc6ccc(Oc7ccc8c(c7)C(=O)N(*)C8=O)cc6c5)cc4C3=O)cc2)cc1 (repeat unit)
33 | 162.00 °C | *Oc1ccc(/N=C/c2ccc(N(c3ccccc3)c3ccc(/C=N/c4ccc(*)cc4)cc3)cc2)cc1 (repeat unit)
34 | 264.00 °C | *c1ccc(C(C)(C)c2ccc(N3C(=O)c4ccc(Oc5ccc(Oc6ccc7c(c6)C(=O)N(*)C7=O)cc5)cc4C3=O)cc2)cc1 (repeat unit)
35 | 121.00 °C | *c1ccc(Sc2cccc(Sc3ccc(S(*)=O)cc3)c2)cc1 (repeat unit)
36 | 172.00 °C | *Oc1ccc(C(C)(C)c2ccc(Oc3ccc(C(=O)c4ccccc4-c4ccccc4C(=O)c4ccc(*)cc4)cc3)cc2)cc1 (repeat unit)
37 | 302.00 °C | *c1ccc(-c2nc3cc(Oc4ccc(NC(=O)c5cc(C(=O)Nc6ccc(Oc7ccc8nc(-c9ccccc9)c(*)nc8c7)cc6)cc(N6C(=O)c7ccccc7C6=O)c5)cc4)ccc3nc2-c2ccccc2)cc1 (repeat unit)
38 | 117.00 °C | *CC(O)COc1ccc(C(C)(C)c2ccc(OCC(O)COc3cccc(C(=O)Nc4cccc(O*)c4)c3)cc2)cc1 (repeat unit)
39 | 288.00 °C | *C(=O)Nc1ccc(Oc2cccc(Oc3ccc(NC(=O)c4ccc5c(c4)C(=O)N(c4ccc(Oc6ccc(C7(c8ccc(Oc9ccc(N%10C(=O)c%11ccc(*)cc%11C%10=O)cc9)cc8)NC(=O)c8ccccc87)cc6)cc4)C5=O)cc3)c2)cc1 (repeat unit)
40 | 88.00 °C | *Oc1cc(OC(=O)c2ccc(OC)cc2)c(OC(=O)CCCC(*)=O)cc1OC(=O)c1ccc(OC)cc1 (repeat unit)
41 | 237.50 °C | *c1ccc(OCCCOc2ccc(N3C(=O)c4ccc(-c5cccc6c5C(=O)N(*)C6=O)cc4C3=O)cc2)cc1 (repeat unit)
42 | 310.00 °C | *c1ccc(Sc2cc3c(cc2Sc2ccc(N4C(=O)C5C6C=CC(C7C(=O)N(*)C(=O)C67)C5C4=O)cc2)C(=O)N(CCN(C)C)C3=O)cc1 (repeat unit)
43 | 379.00 ± 21 °C | *c1ccc(-c2ccc(-n3c(=O)c4cc5c(=O)n(*)c(=O)c5cc4c3=O)cc2C(F)(F)F)c(C(F)(F)F)c1 (repeat unit)
44 | 237.00 °C | *c1cc(OCCCC)cc(N2C(=O)c3ccc(Oc4ccc5c(c4)C(=O)N(*)C5=O)cc3C2=O)c1 (repeat unit)
